Values after ≈ are worked out from the molar mass of the structure shown.
System: NF-kappa B
Experiment: Evaluation of NF-kappa B inhibition (β-gal reporter, IL-1β-induced)
Assay type: cell-based
Conditions: Homo sapiens; β-gal reporter with NF-kappa B binding motif in SV40 large T-immortalized HUVEC; induced with 1 ng/ml IL-1β; read-out: NF-kB inhibiting activity IC50
Method: Cells used for the tests were those prepared by stably introducing E. coli β-galactosidase (β-gal) genes driven by SV 40 minimum promoter fused with 4 tandems of the AP-1 binding motif derived from human MMP-1 gene enhancer into human normal umbilical cord vein endothelial cells (HUVEC) immortalized with SV 40 large T antigen. The cells were subcultured in RPMI medium containing 10% of FBS, and were seeded on a 96-well plate in a concentration of 1×10^4/well on a day before the start of the experiments. A compound of the present invention was dissolved in DMSO to obtain a solution of a proper concentration, which was added into the 96-well plate so that the final DMSO concentration would be not higher than 1%. 30 minutes after the addition of the compound, phorbol-12-myristate-13-acetate (PMA) was added to each well so as to obtain the final concentration of 50 ng/ml. β-gal activity was determined 16 hours after with a chemiluminescent substrate (Galacton-Light-Plus: Boehringer Mannheim) according to a protocol attached to the reagent. A Luminescence detector (ATTO) was used for the determination.
The tests were carried out in the same manner as that of Example 56. Concretely, the AP-1 binding motif of the reporter genes in Example 56 was replaced with the NF-kappa B binding motif derived from immunoglobulin kappa light chain enhancer, and NF-kappa B transcriptional activity was induced with 1 ng/ml of IL-1β in place of PMA.

Structure (SMILES) | IC50
CC1(C)CC1C(=O)Nc1ccc(C(=O)c2ccc(NC(=O)C3CC3(C)C)cc2)cc1 (centres unmarked) [Compound 1] | > 5 µg/mL
CC1(C)CC1C(=O)Nc1ccc(Sc2ccc(NC(=O)C3CC3(C)C)cc2)cc1 (centres unmarked) [Compound 2] | 0.1 µg/mL (≈ 0.245 µM)
CC1(C)CC1C(=O)Nc1ccc(Nc2ccc(NC(=O)C3CC3(C)C)cc2)cc1 (centres unmarked) [Compound 3] | 1 µg/mL (≈ 2.55 µM)
CC1(C)CC1C(=O)Nc1ccc(Oc2ccc(NC(=O)C3CC3(C)C)cc2)cc1 (centres unmarked) [Compound 4] | 1.1 µg/mL (≈ 2.8 µM)
CC1(C)CC1C(=O)Nc1ccc(S(=O)(=O)c2ccc(NC(=O)C3CC3(C)C)cc2)cc1 (centres unmarked) [Compound 5] | > 5 µg/mL
CC1(C)CC1C(=O)Nc1ccc(CCc2ccc(NC(=O)C3CC3(C)C)cc2)cc1 (centres unmarked) [Compound 6] | 0.37 µg/mL (≈ 0.915 µM)
CC1(C)CC1C(=O)Nc1ccc(Cc2cccc(NC(=O)C3CC3(C)C)c2)cc1 (centres unmarked) [Compound 7] | 0.37 µg/mL (≈ 0.947 µM)
CC1(C)CC1C(=O)Nc1ccc(C(=NO)c2ccc(NC(=O)C3CC3(C)C)cc2)cc1 (centres unmarked) [Compound 8] | 5 µg/mL (≈ 11.9 µM)
CC1(C)CC1C(=O)Nc1ccc(C(N)c2ccc(NC(=O)C3CC3(C)C)cc2)cc1 (centres unmarked) [Compound 9] | 2.5 µg/mL (≈ 6.16 µM)
CC(=O)NC(c1ccc(NC(=O)C2CC2(C)C)cc1)c1ccc(NC(=O)C2CC2(C)C)cc1 (centres unmarked) [Compound 10] | > 5 µg/mL
CC1(C)CC1C(=O)Nc1ccc(C(O)c2ccc(NC(=O)C3CC3(C)C)cc2)cc1 (centres unmarked) [Compound 11] | 0.12 µg/mL (≈ 0.295 µM)
COC(c1ccc(NC(=O)C2CC2(C)C)cc1)c1ccc(NC(=O)C2CC2(C)C)cc1 (centres unmarked) [Compound 12] | > 5 µg/mL
CC1(C)CC1C(=O)Nc1ccc(C(CN=[N+]=[N-])c2ccc(NC(=O)C3CC3(C)C)cc2)cc1 (centres unmarked) [Compound 17] | 2.5 µg/mL (≈ 5.61 µM)
CC1(C)CC1C(=O)Nc1ccc(C(CN)c2ccc(NC(=O)C3CC3(C)C)cc2)cc1 (centres unmarked) [Compound 18] | 3 µg/mL (≈ 7.15 µM)
CC1(C)CC1C(=O)Nc1ccc(C(CC#N)c2ccc(NC(=O)C3CC3(C)C)cc2)cc1 (centres unmarked) [Compound 19] | 1.2 µg/mL (≈ 2.79 µM)
CC1(C)CC1C(=O)Nc1ccc(C(CC(=O)O)c2ccc(NC(=O)C3CC3(C)C)cc2)cc1 (centres unmarked) [Compound 20] | 3 µg/mL (≈ 6.69 µM)

Structure (SMILES) | IC50
CC1(C)CC1C(=O)Nc1ccc(Cc2ccc(NC(=O)C3CC3(Cl)Cl)cc2)cc1 (centres unmarked) [Compound 23] | 0.1 µg/mL (≈ 0.232 µM)
COc1ccc(CC(=O)Nc2ccc(Cc3ccc(NC(=O)C4CC4(C)C)cc3)cc2)cc1 (centres unmarked) [Compound 24] | 0.1 µg/mL (≈ 0.226 µM)
CN(C)c1ccc(CC(=O)Nc2ccc(Cc3ccc(NC(=O)C4CC4(C)C)cc3)cc2)cc1 (centres unmarked) [Compound 25] | 0.03 µg/mL (≈ 0.0658 µM)
COc1ccc(CCC(=O)Nc2ccc(Cc3ccc(NC(=O)C4CC4(C)C)cc3)cc2)cc1 (centres unmarked) [Compound 26] | 0.1 µg/mL (≈ 0.219 µM)
COc1ccc(CCNc2ccc(Cc3ccc(NC(=O)C4CC4(C)C)cc3)cc2)cc1 (centres unmarked) [Compound 27] | 0.1 µg/mL (≈ 0.233 µM)
COc1ccc(CCCNc2ccc(Cc3ccc(NC(=O)C4CC4(C)C)cc3)cc2)cc1 (centres unmarked) [Compound 28] | 0.1 µg/mL (≈ 0.226 µM)
CC1(C)C[C@@H]1C(=O)Nc1ccc(C(O)c2ccc(NC(=O)[C@@H]3CC3(C)C)cc2)cc1 (some centres unmarked) [Compound 34] | 0.06 µg/mL (≈ 0.148 µM)
CC1(C)C[C@H]1C(=O)Nc1ccc(C(O)c2ccc(NC(=O)[C@@H]3CC3(C)C)cc2)cc1 [Compound 35] | > 5 µg/mL
Cc1cc(Cc2ccc(NC(=O)C3CC3(C)C)c(C)c2)ccc1NC(=O)C1CC1(C)C (centres unmarked) [Compound 38] | 0.5 µg/mL (≈ 1.19 µM)
CC1(C)CC1C(=O)Nc1ccc(Cc2ccc(N3C(=O)C4C5C=CC(C5)C4C3=O)cc2)cc1 (centres unmarked) [Compound 40] | 1 µg/mL (≈ 2.27 µM)
CC1(C)CC1C(=O)Nc1ccc(Cc2ccc(NC(=O)C3CCCN3)cc2)cc1 (centres unmarked) [Compound 43] | 0.1 µg/mL (≈ 0.255 µM)
CC1(C)CC1C(=O)Nc1ccc(C(O)c2ccc(NC(=O)Cc3ccc(Cl)cc3)cc2)cc1 (centres unmarked) [Compound 44] | 1.5 µg/mL (≈ 3.24 µM)
COc1ccc(CC(=O)Nc2ccc(C(O)c3ccc(NC(=O)C4CC4(C)C)cc3)cc2)cc1 (centres unmarked) [Compound 45] | 0.9 µg/mL (≈ 1.96 µM)
CC1(C)CC1C(=O)Nc1ccc(COc2ccc(NC(=O)C3CC3(C)C)cc2)cc1 (centres unmarked) [Compound 51] | 1 µg/mL (≈ 2.46 µM)
CC1(C)CC1C(=O)Nc1ccc(CSc2ccc(NC(=O)C3CC3(C)C)cc2)cc1 (centres unmarked) [Compound 52] | 0.2 µg/mL (≈ 0.473 µM)
COc1ccc(CCCC(=O)Nc2ccc(Cc3ccc(NC(=O)C4CC4(C)C)cc3)cc2)cc1 (centres unmarked) [Compound 55] | 0.1 µg/mL (≈ 0.212 µM)

— US7459585B2, “Benzene derivatives and pharmaceutical use thereof” (Ajinomoto Co., Inc., priority 1998, dated 2008)
